Laboratory results taken from patent US20080206203A1, “Method for Inhibiting Tumor Metastasis” (Inflammation Research Center Company Ltd., priority 2004, published 2008).
Where two headings read alike, the source gives them in different places.

How the values were obtained:
[1] = test system: permeability of blood brain barrier and infiltration of white blood cells to cerebrospinal fluid caused by arachidonic acid; assay: arachidonic acid-induced central nervous system inflammation (CSF volume and WBC counts via subarachnoid cannula); assay type: in vivo, rat
Description: To investigate the role of leukotriene antagonists in the treatment of inflammation, a sensitive and quantitative method to measure inflammation for the central nervous system was developed. Important changes in the inflammatory process can be monitored, as both the permeability of blood brain barrier (BBB) and the infiltration of white blood cells (WBC) to cerebrospinal fluid (CSF) caused by arachidonic acid can be measured over time from the same experimental animal. In particular, the effect of the leukotriene C4 and D4 antagonist, pranlukast, was studied using this method. Changes in the inflammatory process of both the permeability of BBB and the infiltration of white blood cells (WBC) caused by administering arachidonic acid as a nociceptive stimulus were observed.
Male rats, approximately 350-400 g, were anesthetized with sodium pentobarbital at a dose of 50 mg/kg intraperitoneally (i.p.). Animals were then placed in a stereotaxic unit. Fur from the top of the head to neck was shaved. The study area was disinfected with 70% ethanol followed by a 10% providone-iodine solution. Skin and muscle over the cervical cord were dissected until cervical vertebrae were exposed. A hole was made using a 23 G3/4 needle passing through the dura via the cisterna magna. One end of a 2-3 mm PE10 cannula (0.011 “I.D., 0.007” thick, 0.024″ O.D., 6.5 cm long) was inserted into the subarachnoid space at the cervical cord so as to avoid damage to neuronal tissue (FIG. 3). The cannula was fixed with cyanoacrylic glue to the peripheral tissue. The other end of PE10 was used for administration of a nociceptive stimulus, such as arachidonic acid (AA; 3.25 μg/2 μl) and subsequently for collecting cerebrospinal fluid (CSF) every thirty minutes thereafter during the 11-hour experimental period. The cannula filled with CSF immediately after the cannulation.
Air was infused to inject AA to the subarachnoid space. The muscles and skin were closed with surgical staples. The rat was then removed from the stereotaxic unit and placed on a heat pad and continuously monitored.
In the interaction study, the leukotriene C4 and D4 antagonist, pranlukast, was administered (490 mg/kg, i.p.) thirty minutes before administration of arachidonic acid (AA). If the effects of the anesthesia appeared to be wearing off, an additional 0.05-0.1 ml pentobarbital (50 mg/ml, i.p.) dose was administered. If at any time during the experiment, the animal appeared to be in pain or distress, the study was immediately stopped and the animal was euthanized.
In the present study, the volume (μl) of cerebrospinal fluid (CSF) and white blood cell (WBC) counts in CSF was measured every thirty minutes for 11 hours from the same rat. One side of the cannula (PE10) was inserted into the subarachnoid space under pentobarbital anesthesia, avoiding neuronal damage (FIG. 3). If the brain tissue is damaged, the volume of CSF and WBC increases immediately without the administration of arachidonic acid. Since there are no WBC in the CSF in the normal rat, only rats that had no WBC in the CSF immediately after the cannulation were used. Another side of the cannula remained open and was used for the administration of nociceptive stimuli (arachidonic acid, LPS, dextran, etc.) and subsequently for collecting the CSF every thirty minutes during the experiment. The CSF volume was measured using a micropipette and WBC in the CSF were counted by means of a hemacytometer.

[2] = in vivo; cited from earlier work
rat ischemia model = assay: rat ischemia model, reversible 30 minute occlusion of both carotid arteries followed by reperfusion; assay type: in vivo; conditions: pre-treatment
Description: One of 4-5 rats survived for one week when pranlukast (450 mg/kg i.p.) was administered 30 minutes before the occlusion.

[3] = test system: MKN 74 (lung cancer) cells; assay: interaction study with MKN74 cancer cells i.v.; assay type: in vivo, human; conditions: pranlukast-MKN74-arachidonic acid, 490 mg/kg p.o., rat
Description: (§1) To test for inhibition of metastasis, pranlukast is administered orally (instead of intraperitoneally as was done in Example 2) before intravenous injection of the cancer cells. Arachidonic acid (AA) is then administered to the subarachnoid space two hours after pranlukast administration. The volume of CSF, white blood cell counts and cancer cell counts in the CSF are measured every 30 minutes.
(§2) Cultured human cancer cell lines, Colo 201 (colon cancer) and MKN 74 ([…]), and a cultured rat cancer cell line RCN9 were purchased from Health Science Research Resources Bank (Rinku-minamihama 2-11, Sennan-shi, Osaka, 590-0535, Japan). Human lung cancer cell line QG56 was a gift from Dr. Yukito Ichinose, Department of Laboratory Medicine, Kyusyu Cancer Center, Hukuoka, Japan. Cells were cultured at 37° C. and 5% CO2, in RPMI-1640 (SIGMA, MO, USA) supplemented with 5% fetal bovine serum, 2 mM L-glutamine (Gibco), 100 units penicillin, 100 μg/ml streptomycin (Gibco Invitrogen Corp., Grand Island, N.Y., USA).
(§3) Rats were anesthetized by sodium pentobarbital (50 mg/kg i.p.).
(§4) A femoral vein was exposed and a polyethylene tube filled with 0.002% heparin in saline was inserted. The other end of the polyethylene tube was connected to a three way cock valve for the intravenous injection of cancer cells. The animal was then placed in a stereotaxic unit (Type SRS-6 produced by Narishige Scientific Instrument Lab). Fur from the top of the head to the neck was shaved. The study area was disinfected with 70% ethanol. Skin and muscle over the cervical vertebrae were exposed. A hole was made using an 18 G×1 ½ needle passing through the dura via the cisterna magna. One end (2-3 mm) of an SP10 tube (5-6 cm long) was inserted into the subarachnoid space. The cannula was fixed with cyanoacrylic glue to the peripheral tissue. […]
(§5) The volume (μl) of CSF, WBC counts, and cancer cells counts was measured after the 3rd treatment for 8 hours.

MKN 74 cells = assay: interaction study with MKN74 cancer cells i.v.; assay type: in vivo, human; conditions: pranlukast-MKN 74-saline
Description: as §1, §2, §3, §4, §5

[4] = test system: lung cancer cell line QG56; assay: interaction study with QG56 cancer cells i.v.; assay type: in vivo, human
Description: as §1, §2, §3, §4, §5

rats [5] = conditions: cited from earlier work
[6] = test system: RCN-9, a colon cancer cell line; assay: interaction study with RCN9 cancer cells i.v.; assay type: in vivo, rat
Description: as §1, §2, §3, §4, §5

mice = conditions: cited from earlier work
[7] = 20 mg/kg p.o., cited from earlier work
[8] = test system: dextran-induced rat paw edema; assay: dextran-induced rat paw edema; assay type: in vivo
[9] = test system: Colo 201 (colon cancer) cells; assay: interaction study with Colo201 cancer cells i.v.; assay type: in vivo, human
Description: as §1, §2, §3, §4, §5

[10] = test system: capillary permeability and extravasation of white blood cells and tumor cells from the capillary; assay: interaction study: arachidonic acid-induced capillary permeability and extravasation into CSF (model of metastasis); assay type: in vivo, rat
Description: as §1, §3
A femoral vein was exposed and a polyethylene tube filled with 0.002% heparin in saline was inserted. The other end of the polyethylene tube was connected to a three way cock valve for the intravenous injection of cancer cells. The animal was then placed in a stereotaxic unit (Type SRS-6 produced by Narishige Scientific Instrument Lab). Fur from the top of the head to the neck was shaved. The study area was disinfected with 70% ethanol. Skin and muscle over the cervical vertebrae were exposed. A hole was made using an 18 G×1 ½ needle passing through the dura via the cisterna magna. One end (2-3 mm) of an SP10 tube (5-6 cm long) was inserted into the subarachnoid space. The cannula was fixed with cyanoacrylic glue to the peripheral tissue. The other end of the SP10 tube was used for administration of arachidonic acid (8.16 ng/2 μl of saline) and subsequently for collecting cerebrospinal fluid (CSF) every thirty minutes thereafter for 1-2 hours in the in vivo morphological study and for 8 hours in the interaction studies.
As a capsule of Onon contains 112.5 mg of pranlukast, the powder from two capsules was stirred in 2.295 ml of deionized water with the electric mixer immediately before oral administration. The volume of administration of pranlukast was 5 ml/kg (dose=490 mg/kg).
The number of cancer cells were prepared to 1/100 of the number of neutrophils in each rat using PBS. Because of body weight (400±50 g), the number of cancer cells were between 1.88×10^4 and 2.43×10^4 and the volume of administration of cancer cell was adjusted to 1 ml for each rat.
Arachidonic acid was dissolved in saline and 816.25 ng/2 μl was administered for each rat.
Three different treatments were administered as follows;
1st treatment was pranlukast (490 mg/kg p.o.) or deionized water (p.o.).
2nd treatment was with cancer cells or PBS
3rd treatment was with arachidonic acid or saline.
The first treatment was administered 2 hours before arachidonic acid. The second treatment (cancer cells i.v.) was administered 2-3 minutes before arachidonic acid. Two canula in each animal to the femoral vein and to the subarachnoid space were inserted between the 1st treatment and 2nd treatment.
The number on the right side of table corresponds to that of the figures for the results. Four rats were used for each group.
as §5
To analyze whether or not human cancer cells, as foreign substances, affect the immune system in rats, each parameter, i.e., white blood cells counts, tumor cells counts and CSF volume with rat cancer cells (RCN9) was compared with the corresponding parameters of COLO201, MKN 74, and QG56, respectively, using area under time action curves and analysis of variance (Dunnet). Probability value was p<0.05 to be significant.

rats [11] = conditions: cited from earlier work; remark: listed apart in the source
[12] = test system: infiltration of WBC into the CSF caused by interleukin-6; assay: interleukin-6-induced infiltration of WBC into the CSF in the intact dog; assay type: in vivo; conditions: pretreatment, three different doses
Description: Additionally, increased infiltration of WBC into the CSF caused by interleukin-6 were inhibited by pretreatment of pranlukast (administered at three different doses) in the intact dog.

[13] = pranlukast-QG56-arachidonic acid, 490 mg/kg p.o., rat
[14] = pranlukast-RCN9-arachidonic acid, 490 mg/kg p.o., rat
[15] = pranlukast-Colo201-arachidonic acid, 490 mg/kg p.o., rat
[16] = 490 mg/kg p.o., eight hours after arachidonic acid
[17] = pranlukast (490 mg/kg p.o.)-PBS-arachidonic acid (816 ng/2 μl), FIG. 11

CCCCC/C=C\C/C=C\C/C=C\C/C=C\CCCC(=O)O [arachidonic acid, Arachidonic acid]
maximum CSF volume after administration ([1]; arachidonic acid 3.2 μg/2 μl into subarachnoid space, collected every thirty minutes, rat): 100 to 120 µL
CSF volume maintained for every thirty minutes ([1]; arachidonic acid 3.2 μg/2 μl, during 4.0-5.0 hours post-administration): 60 to 80 µL
time to peak / maximum CSF volume ([1]; arachidonic acid into subarachnoid space, rat): ≤ 3.5 h

CC(C)(O)c1ccccc1CC[C@@H](SCC1(CC(=O)O)CC1)c1cccc(/C=C/c2ccc3ccc(Cl)cc3n2)c1 [montelukast]
passage of the blood-brain barrier [2]: does not pass, or passes the blood-brain barrier at most at a very minimal level

O=C(Nc1cccc2c(=O)cc(-c3nnn[nH]3)oc12)c1ccc(OCCCCc2ccccc2)cc1 [pranlukast]
survival (rat ischemia model): longer survival
extravasation of tumor cells [3]: significantly inhibited
increasing capillary permeability [3]: significantly inhibited
effect when cancer cells present without arachidonic acid (MKN 74 cells): did not have any effect
extravasation of tumor cells [4, 13]: significantly inhibited
increasing capillary permeability [4, 13]: significantly inhibited
effect when cancer cells present without arachidonic acid ([4]; pranlukast-QG56-saline): did not have any effect
LD50 (rats [5]; p.o.): > 2000 mg/kg
LD50 (rats [5]; s.c.): > 2000 mg/kg
extravasation of tumor cells [6, 14]: significantly inhibited
increasing capillary permeability [6, 14]: significantly inhibited
effect when cancer cells present without arachidonic acid ([6]; pranlukast-RCN9-saline): did not have any effect
LD50 (mice; p.o.): > 2000 mg/kg
LD50 (mice; s.c.): > 2000 mg/kg
pranlukast in blood 24 hours after administration ([7]; 24 hours): no pranlukast was observed
time at which maximum blood concentration was attained [7]: within one hour
time the maximum blood concentration was maintained [7]: at least 5 hours
inhibition of inflammation caused by arachidonic acid ([1]; 450 mg/kg i.p., arachidonic acid 3.25 μg/2 μl): completely inhibits
inhibition of the increase of CSF volume ([1]; 490 mg/kg i.p. thirty minutes before arachidonic acid (3.25 μg/2 μl) into the subarachnoid space, rat): completely inhibited
inhibition of the permeability of the brain capillary marked by WBC infiltration ([1]; 490 mg/kg i.p. thirty minutes before arachidonic acid, rat): completely inhibited
inhibition of dextran-induced paw edema ([8]; about 490 mg/kg, administered intraperitoneally): completely inhibited
inhibition of dextran-caused paw edema ([8]; about 490 mg/kg, administered orally (FIG. 2)): completely inhibited
inhibition of dextran-induced rat paw edema ([8]; dose dependence): inhibited by pranlukast in a dose-dependent fashion
extravasation of tumor cells [9, 15]: significantly inhibited
increasing capillary permeability [9, 15]: significantly inhibited
effect when cancer cells present without arachidonic acid ([9]; pranlukast-Colo201-saline): did not have any effect
area under the time action curve, CSF [10, 16]: zero
area under the time action curve, white blood cell counts [10, 16]: zero
area under the time action curve, tumor cell counts ([10]; 490 mg/kg p.o., eight hours after arachidonic acid, tumor cells i.v.): zero
extravasation of white blood cells caused by arachidonic acid [10, 17]: inhibited
increased capillary permeability caused by arachidonic acid [10, 17]: inhibited
effect of pranlukast by itself on tumor/WBC counts and CSF volume ([10]; pranlukast-PBS-saline, 490 mg/kg p.o., no arachidonic acid): no effect
behavior, changes in body weight, and food intake compared with control group (rats [11]; repeated administration 30, 100, 300, 1000 mg/kg/day p.o. for three months and six months): normal
urine examination and histopathological examinations (rats [11]; repeated administration): normal
behavior, changes in body weight, and food intake compared with control group (rats [11]; single administration 30, 100, 300, 1000 mg/kg p.o.): normal
urine examination and histopathological examinations (rats [11]; single administration): normal
increased infiltration of WBC into the CSF caused by interleukin-6 [12]: inhibited
passage of the blood-brain barrier [2]: does not pass, or passes the blood-brain barrier at most at a very minimal level

COc1cc(C(=O)NS(=O)(=O)c2ccccc2C)ccc1Cc1cn(C)c2ccc(NC(=O)OC3CCCC3)cc12 [zafirlukast]
passage of the blood-brain barrier [2]: does not pass, or passes the blood-brain barrier at most at a very minimal level
